The values that follow come from patent US20140230091A1, “MODIFIED PLANTS WITH INCREASED OIL CONTENT” (BROOKHAVEN SCIENCE ASSOCIATES, LLC, priority 2011, published 2014).

The test system of the assay is genes encoding plastidic ACCase subunits. Description: qPCR analysis of genes encoding plastidic ACCase subunits. As to conditions: 10 mM Tween-80, three hour treatment; mean of three repeats ± SE; 0 mM = 1. The format is cell-based, Brassica napus. As to the method:
RNA was isolated from cultured cells using Trizol Reagent (Invitrogen, Carlsbad, Calif., USA) and was treated with DNase. cDNA was synthesized from 1 μg of total RNA using the Bio-Rad (Hercules, Calif., USA) iScript cDNA synthesis kit. qPCR was performed with 1:50 of the cDNA product and SSO Fast EvaGreen supermix (Bio-Rad). Reference genes were ACT7 and UBC21 using primers as described previously (Chen et al. 2010 Anal Biochem, 405, 138-140). Primers for experimental genes were as follows: BC, biotin carboxylase (GenBank:A Y034410.1), F-[…] (SEQ ID No. 28) and R-[…] (SEQ ID No. 29); BCCP, biotin carboxyl carrier protein (GenBank: X90730.1), F-[…] (SEQ ID No. 30), R-[…] (SEQ ID No. 31); CT-α, carboxytransferase-α (GenBank GQ341624.1), F-[…] (SEQ ID No. 32), R-[…] (SEQ ID No. 33); CT-β, carboxytransferase-β (GenBank: Z50868.1), F-[…] (SEQ ID No. 34), R-[…] (SEQ ID No. 35). Relative expression level was calculated using REST software (Qiagen, Valencia, Calif., USA).
Gene expression analysis and enzyme assays were performed to better understand the apparent reduction in ACCase activity during Tween-80 feeding. Quantitative real-time PCR was used to measure the expression of genes encoding plastidic ACCase subunits. The specific genes selected for analysis were those originally identified as being embryo expressed in Brassica napus plants (Elborough et al. 1996, Biochemical Journal, 315, 103-112). […] Desalted extracts gave the same result. […] If dephosphorylation is involved in feedback, then treatment with phosphatase would be expected to reduce ACCase activity from inhibited cells to a lesser extent than from the control. If PII interaction is involved, then it is possible that incubation in the presence of 2-oxoglutarate would […] ACCase from a Tween-fed extract more than the control.

Tween-80: the “Relative gene expression BC” value was found to be 0.91 ± 0.17, the “Relative gene expression BCCP” value is 1.32 ± 0.58, the “Relative gene expression CT-α” value is 1.02 ± 0.33 and the “Relative gene expression CT-β” value turned out to be 1.18 ± 0.29.
